Test results: PubChem BioAssay (NCI)
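Cells were grown in 96-well plates and exposed to each compound for 48 hours at five concentrations; endpoints were interpolated linearly between bracketing concentrations, or set to the highest concentration if not reached. GI50 is the concentration that inhibits growth by half. The concentration for full growth arrest is given as TGI.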

How the values were obtained:
Assay in all cases: NCI anticancer screen, dose series, 48 h
HL-60(TB) leukemia = system: HL-60(TB) leukemia
HOP-62 NSCLC = system: HOP-62 NSCLC
A498 renal = system: A498 renal
SK-OV-3 ovarian = system: SK-OV-3 ovarian
NCI-H23 lung = system: NCI-H23 lung
OVCAR-5 ovarian = system: OVCAR-5 ovarian
SNB-19 CNS = system: SNB-19 CNS
HS 578T breast = system: HS 578T breast
M14 melanoma = system: M14 melanoma
PC-3 prostate = system: PC-3 prostate
HCT-15 colon = system: HCT-15 colon
MDA-MB-231 breast = system: MDA-MB-231 breast
HCT-116 colon = system: HCT-116 colon
SF-295 CNS = system: SF-295 CNS
UACC-257 melanoma = system: UACC-257 melanoma
BT-549 breast = system: BT-549 breast
SF-539 CNS = system: SF-539 CNS
RPMI-8226 leukemia = system: RPMI-8226 leukemia
T-47D breast = system: T-47D breast
MOLT-4 leukemia = system: MOLT-4 leukemia
EKVX NSCLC = system: EKVX NSCLC
SK-MEL-28 melanoma = system: SK-MEL-28 melanoma
MCF7 breast = system: MCF7 breast
LOX IMVI melanoma = system: LOX IMVI melanoma
SNB-75 CNS = system: SNB-75 CNS
IGROV1 ovarian = system: IGROV1 ovarian
KM12 colon = system: KM12 colon
SN12C renal = system: SN12C renal
UO-31 renal = system: UO-31 renal
NCI-H522 lung = system: NCI-H522 lung
NCI-H226 lung = system: NCI-H226 lung
NCI/ADR-RES ovarian = system: NCI/ADR-RES ovarian
SW-620 colon = system: SW-620 colon
MDA-MB-435 = system: MDA-MB-435
CCRF-CEM leukemia = system: CCRF-CEM leukemia
HOP-92 NSCLC = system: HOP-92 NSCLC
DU-145 prostate = system: DU-145 prostate
OVCAR-4 ovarian = system: OVCAR-4 ovarian
HCC-2998 colon = system: HCC-2998 colon
OVCAR-8 ovarian = system: OVCAR-8 ovarian
MALME-3M melanoma = system: MALME-3M melanoma
SR leukemia = system: SR leukemia
TK-10 renal = system: TK-10 renal
SK-MEL-5 melanoma = system: SK-MEL-5 melanoma
NCI-H460 lung = system: NCI-H460 lung
K-562 leukemia = system: K-562 leukemia
UACC-62 melanoma = system: UACC-62 melanoma
RXF 393 renal = system: RXF 393 renal
SK-MEL-2 melanoma = system: SK-MEL-2 melanoma
COLO 205 colon = system: COLO 205 colon
SF-268 CNS = system: SF-268 CNS
OVCAR-3 ovarian = system: OVCAR-3 ovarian
HT29 colon = system: HT29 colon

SMILES: C#C[C@@]1(O)[C@@H](CO)O[C@@H](n2cc(Br)c3c(N)ncnc32)[C@@H]1O
- GI50 (HL-60(TB) leukemia): 21.8 nM
- TGI (HL-60(TB) leukemia): 75.7 nM
- GI50 (HOP-62 NSCLC): 300 nM
- TGI (HOP-62 NSCLC): > 21800 nM
- GI50 (A498 renal): 227 nM
- TGI (A498 renal): 587 nM
- GI50 (SK-OV-3 ovarian): 44.1 nM
- TGI (SK-OV-3 ovarian): 439 nM
- GI50 (NCI-H23 lung): 191 nM
- TGI (NCI-H23 lung): 2850 nM
- GI50 (OVCAR-5 ovarian): 593 nM
- TGI (OVCAR-5 ovarian): > 75300 nM
- GI50 (SNB-19 CNS): 60.6 nM
- GI50 (HS 578T breast): 644 nM
- TGI (HS 578T breast): > 72400 nM
- GI50 (M14 melanoma): 226 nM
- TGI (M14 melanoma): 13500 nM
- GI50 (PC-3 prostate): 89.3 nM
- TGI (PC-3 prostate): > 29500 nM
- GI50 (HCT-15 colon): 110 nM
- TGI (HCT-15 colon): > 100000 nM
- GI50 (MDA-MB-231 breast): 110 nM
- TGI (MDA-MB-231 breast): > 100000 nM
- GI50 (HCT-116 colon): 27.4 nM
- TGI (HCT-116 colon): > 100000 nM
- GI50 (SF-295 CNS): 297 nM
- TGI (SF-295 CNS): 7520 nM
- GI50 (UACC-257 melanoma): 4080 nM
- TGI (UACC-257 melanoma): 61600 nM
- GI50 (BT-549 breast): 186 nM
- TGI (BT-549 breast): 663 nM
- GI50 (SF-539 CNS): 298 nM
- TGI (SF-539 CNS): 1530 nM
- GI50 (RPMI-8226 leukemia): 128 nM
- TGI (RPMI-8226 leukemia): 828 nM
- GI50 (T-47D breast): 17.3 nM
- TGI (T-47D breast): 177 nM
- GI50 (MOLT-4 leukemia): 112 nM
- GI50 (EKVX NSCLC): 198 nM
- TGI (EKVX NSCLC): 2680 nM
- GI50 (SK-MEL-28 melanoma): 3650 nM
- TGI (SK-MEL-28 melanoma): 38100 nM
- GI50 (MCF7 breast): 22.2 nM
- TGI (MCF7 breast): 1470 nM
- GI50 (LOX IMVI melanoma): 55.2 nM
- TGI (LOX IMVI melanoma): 249 nM
- GI50 (SNB-75 CNS): 234 nM
- TGI (SNB-75 CNS): 746 nM
- GI50 (IGROV1 ovarian): 69.9 nM
- TGI (IGROV1 ovarian): 485 nM
- GI50 (KM12 colon): 107 nM
- TGI (KM12 colon): > 100000 nM
- GI50 (SN12C renal): 90.7 nM
- TGI (SN12C renal): > 100000 nM
- GI50 (UO-31 renal): 130 nM
- TGI (UO-31 renal): 1500 nM
- GI50 (NCI-H522 lung): 97.8 nM
- TGI (NCI-H522 lung): 444 nM
- GI50 (NCI-H226 lung): 1280 nM
- TGI (NCI-H226 lung): > 25200 nM
- GI50 (NCI/ADR-RES ovarian): 45.1 nM
- TGI (NCI/ADR-RES ovarian): 1020 nM
- GI50 (SW-620 colon): 48.7 nM
- TGI (SW-620 colon): > 100000 nM
- GI50 (MDA-MB-435): 176 nM
- TGI (MDA-MB-435): 10300 nM
- GI50 (CCRF-CEM leukemia): 200 nM
- TGI (CCRF-CEM leukemia): > 100000 nM
- GI50 (HOP-92 NSCLC): 218 nM
- TGI (HOP-92 NSCLC): 1460 nM
- GI50 (DU-145 prostate): 97.4 nM
- TGI (DU-145 prostate): > 100000 nM
- GI50 (OVCAR-4 ovarian): 366 nM
- TGI (OVCAR-4 ovarian): > 100000 nM
- GI50 (HCC-2998 colon): 201 nM
- TGI (HCC-2998 colon): 809 nM
- GI50 (OVCAR-8 ovarian): 13.5 nM
- TGI (OVCAR-8 ovarian): 1120 nM
- GI50 (MALME-3M melanoma): 708 nM
- TGI (MALME-3M melanoma): 13100 nM
- GI50 (SR leukemia): 60.8 nM
- TGI (SR leukemia): > 100000 nM
- GI50 (TK-10 renal): 445 nM
- TGI (TK-10 renal): > 92600 nM
- GI50 (SK-MEL-5 melanoma): 107 nM
- TGI (SK-MEL-5 melanoma): 1940 nM
- GI50 (NCI-H460 lung): 29.2 nM
- TGI (NCI-H460 lung): 901 nM
- GI50 (K-562 leukemia): 60.8 nM
- TGI (K-562 leukemia): > 100000 nM
- GI50 (UACC-62 melanoma): 230 nM
- TGI (UACC-62 melanoma): 12300 nM
- GI50 (RXF 393 renal): 480 nM
- TGI (RXF 393 renal): 2290 nM
- GI50 (SK-MEL-2 melanoma): 134 nM
- TGI (SK-MEL-2 melanoma): 571 nM
- GI50 (COLO 205 colon): 89.1 nM
- TGI (COLO 205 colon): 460 nM
- GI50 (SF-268 CNS): 482 nM
- TGI (SF-268 CNS): 51700 nM
- GI50 (OVCAR-3 ovarian): 215 nM
- TGI (OVCAR-3 ovarian): 3770 nM
- GI50 (HT29 colon): 38 nM
- TGI (HT29 colon): > 100000 nM
